Activity calls are given as the source filed them. The rule behind the calls is not given here.

Data set [1] is described as follows: Ratio of LD50 for dark toxicity in mouse Colon 26 cells to EC50 for photo-toxicity in mouse Colon 26 cells at 1 Jcm'-2 of continuous illumination with 630 +/- 2 nm laser light. The format is cell-based. Particulars: read-out: Ratio LD50/EC50.
Data set [2] concerns Colon 26. In words: Photo-toxicity in mouse Colon 26 cells assessed as cell viability up to 5 Jcm'-2 of continuous illumination with 630 +/- 2 nm laser light incubated for 48 hrs by sulforhodamine B assay. It is filed as functional, cell-based. The settings on record: Colon 26, 48 h.
The test system of data set [3] is Colon 26. As to the kind of experiment: Photo-toxicity in mouse Colon 26 cells assessed as cell viability at 0.5 Jcm'-2 of continuous illumination with 630 +/- 2 nm laser light incubated for 48 hrs by sulforhodamine B assay. It is filed as functional, cell-based. The settings on record: for EC50: Colon 26, 48 h.
The subject of data set [4] is Colon 26. As to the kind of experiment: Photo-toxicity in mouse Colon 26 cells assessed as cell viability at 1 Jcm'-2 of continuous illumination with 630 +/- 2 nm laser light incubated for 48 hrs by sulforhodamine B assay. The format is functional, cell-based. Particulars: for EC50: Colon 26, 48 h.
Data set [5] is described as follows: Cellular uptake in mitochondria of mouse Colon 26 cells expressing p-glycoprotein using MitoTracker Green after 15 mins by flow cytometry. It is filed as ADME. Particulars: colon 26, 0.25 h.
Data set [6] is described as follows: Dark toxicity in mouse Colon 26 cells expressing p-glycoprotein assessed as cell viability incubated for 1 hr followed by incubated for 48 hrs in fresh medium by sulforhodamine B assay. The format is cell-based. Particulars: read-out: LD50.
Data set [7] deals with Colon 26. In words: Drug uptake in mouse Colon 26 cells expressing p-glycoprotein at 2 x 10^-7 M after 15 mins by flow cytometry in presence of 1 x 10^-4 M of verapamil. The format is ADME, cell-based. Particulars: colon 26, 0.25 h, 0.2 µM.
Data set [8] can be described thus: n-Octanol-water partition coefficient, log P of the compound at pH 7.4 by shake flask method. The format is physicochemical.
Data set [9] concerns Colon 26. As to the kind of experiment: Drug uptake in mouse Colon 26 cells expressing p-glycoprotein at 2 x 10^-7 M after 15 mins by flow cytometry in absence of verapamil. The format is ADME, cell-based. Particulars: colon 26, 0.25 h, 0.2 µM.
A short description of data set [10]: Ratio of LD50 for dark toxicity in mouse Colon 26 cells to EC50 for photo-toxicity in mouse Colon 26 cells at 15 Jcm'-2 of continuous illumination with 630 +/- 2 nm laser light. The format is cell-based. The settings on record: read-out: Ratio LD50/EC50.

For the compound `S=C(c1ccc(C2=c3cc4c5c(c3[Se]c3c2cc2c6c3CCCN6CCC2)CCC[N+]=5CCC4)s1)N1CCCCC1.[Cl-]`, the selectivity ratio in data set [1] was 53. For the same compound, the concentration giving a half-maximal response (EC50) was 50 nM in the data set with Colon 26 [2], 56 nM in the data set on Colon 26 [3] and 29 nM with Colon 26 [4]. Moreover, the Drug uptake result (in data set [5]; with Colon 26 [9]) was “Active” in each case. Further, the CC50 at 1 h in [6] stood at 1530 nM. Further, the “fold change (FC)” value with Colon 26 [7] was 2.9. Further, the pH-dependent lipophilicity (logD) in [8] came to 4.1.
As for `CN(C)c1ccc(-c2cc(-c3ccc(N)cc3)[se+]c(-c3ccc(N)cc3)c2)cc1`, in [10], the selectivity ratio was 3.8.
Turning to `O=C(c1ccc(C2=c3cc4c5c(c3[Se]c3c2cc2c6c3CCCN6CCC2)CCC[N+]=5CCC4)s1)N1CCCCC1.[Cl-]`, in [1], the selectivity ratio stood at 58. In addition, the results for the EC50 in the data set with Colon 26 [2], in the data set with Colon 26 [3] and with Colon 26 [4] were 50 nM, 79 nM and 38.8 nM, respectively. Moreover, the Drug uptake entry (in data set [5]; in the data set on Colon 26 [9]) was “Active” throughout. Also, the CC50 at 1 h in data set [6] is 2240 nM. Further, the “fold change (FC)” value with Colon 26 [7] was determined as 7.6. In data set [8], the pH-dependent lipophilicity (logD) amounted to 3.71.
Turning to `CN(C)c1ccc(-c2cc(-c3ccccc3)[s+]c(-c3ccc(N)cc3)c2)cc1`, the result in the data set with Colon 26 [3] and with Colon 26 [4] was inactive. Also, the CC50 at 1 h in data set [6] is 70 nM.
Regarding `CN(C)c1ccc(-c2cc(-c3ccccc3)[se+]c(-c3ccc(N)cc3)c2)cc1`, the selectivity ratio in data set [10] was determined as 13. The CC50 at 1 h in [6] worked out at 2600 nM.
